Laboratory results: publication PMC4977052, “On the Utility of ToxCast™ and ToxPi as Methods for Identifying New Obesogens” (Environmental Health Perspectives, 2016)
Like-named read-outs stand apart in the source and are kept apart here.

Assays:
[1] = test system: 3T3-L1 preadipocytes; test: 3T3-L1 adipogenesis assay (lipid accumulation, adipogenic gene expression); assay type: cell-based; details: 0.02-20 μM, 5 days after MDI induction
In short: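 After 2-day MDI induction with biotin and pantothenate, 3T3-L1 cells were treated 5 days with chemicals at 0.02–20 μM (0.1% DMSO; 10 μM if toxic). Lipid read as Nile red/Hoechst fluorescence ratio; adipogenic genes by QPCR, 2^ΔΔCt versus 36b4, normalized to DMSO.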

[2] = test system: RXRα; details: cited from earlier work
[3] = test system: PPARγ; details: cited from earlier work
[4] = test system: PPRE; set-up: method as in Knudsen et al. 2011; details: ToxCast Phase I 2011 release; NA = not active; ref Knudsen et al. 2011; read-out: ATGC PPRE AC50; cited from earlier work
[5] = test system: C/EBP; set-up: method as in Knudsen et al. 2011; details: ToxCast Phase I 2011 release; NA = not active; ref Knudsen et al. 2011; read-out: ATGC CEBP AC50; cited from earlier work
[6] = test system: mouse bone marrow-derived mesenchymal stem cells (mBMSCs); assay type: cell-based; details: 14 days, Figure 7
Description: A total of 8 × 10^4 cells/well mouse bone marrow-derived mesenchymal stem cells (mBMSCs) (OriCell™) were seeded in 12-well plates in basic medium: high-glucose DMEM (Hyclone) containing 10% calf bovine serum (Premium Select, Atlanta Biologicals), 100 IU/mL penicillin, 100 μg/mL streptomycin, and 1 mM sodium pyruvate. mBMSCs were induced to differentiate in differentiation media (low glucose αMEM containing 15% fetal bovine serum (Premium Select, Atlanta Biologicals), 100 IU/mL penicillin, 100 μg/mL streptomycin and 2 mM L-glutamine) with adipogenic cocktail (500 μM isometylbutylxanthine, 1 μM dexamethasone, 5 μg/mL insulin) and either 500 nM ROSI, 50 nM TBT or ToxCast™ chemicals (as noted for 3T3-L1 cells) for 14 days, replacing the media every 3 days.
Cells were either fixed in 3.7% formaldehyde in phosphate-buffered saline (PBS) for 30 min at room temperature (RT) for lipid quantitation, or homogenized in TriPure (Roche, Mannheim, Germany) for gene expression analysis. For lipid quantitation, fixed cells were washed twice with PBS and maintained in PBS overnight at 4°C to release residual phenol red. Background of cells were measured prior to staining. Cells were stained with 1 μg/mL Nile red (CAS No. 7385-67-3) (to detect lipid accumulation) and 1 μg/mL Hoechst 33342 (ThermoFisher Scientific) (to detect nuclei as a surrogate for cell number) in PBS for 15 min in the dark at RT and washed twice with PBS. […] Background values of Hoechst and Nile red were subtracted from the RFUs after staining and the ratio RFUNile Red:RFUHoechst was calculated. Data are represented as mean ± SEM. Total RNA was isolated using TriPure (Roche) as recommended by the manufacturer. Reverse transcription and quantitative real-time RT-PCR (QPCR) were performed using Transcriptor RT and SYBR® Green Master Mix (Roche). cDNA was quantitated in a LightCycler® 480 System (Roche Diagnostics, Basel, Switzerland) using primer sets listed in Table S4. Each primer set amplified a single band as determined by gel electrophoresis and melting curve analysis. QPCR data were analyzed using the 2^ΔΔCt method ([Livak and Schmittgen 2001]) relative to ribosomal protein 36b4, normalizing to 0.1% DMSO vehicle. Error bars represent the SEM from four to six biological replicates calculated using standard propagation of error ([Bevington and Robinson 2003]).

[7] = target: T1, GAL4-hRXRα (Homo sapiens, UniProt P19793); test: GAL4-hRXRα activation, transient transfection luciferase reporter in COS7 cells; assay type: cell-based
T1 construct: expressed in transfected cells; host or cells: COS7
Description: (§1) pCMX-Gal4, pCMX-Gal4-mPPARγ, and pCMX-Gal4-hRXRα were previously described ([Grün et al. 2006]). Transient transfections were performed in COS7 cells as described ([Chamorro-García et al. 2012]). Briefly, COS7 cells were seeded at 15,000 cells per well in 96-well tissue culture plates in 10% calf bovine serum. The following day, cells were transfected in Opti-MEM at ~ 90% confluency. One microgram of CMX-GAL4 effector plasmid was co-transfected with 5 μg tk-(MH100)4-luciferase reporter and 5 μg of CMX-β-galactosidase transfection control plasmids in Opti-MEM® using Lipofectamine® 2000 reagent (Invitrogen™ Life Technologies, Carlsbad, CA, USA), following the manufacturer’s recommended protocol. All chemicals were solvated in dimethyl sulfoxide (DMSO). After overnight incubation, the medium was replaced with Dulbecco’s Modified Eagle Medium (DMEM; HyClone, Logan, UT, USA), 10% resin charcoal stripped fetal bovine serum (FBS) plus ligands at concentrations indicated in the figure legends for an additional 24 hr. DMSO concentration was maintained at 0.05% across all chemical treatments. Cells were lysed and assayed for luciferase and β-galactosidase activity as previously described ([Forman et al. 1995]). All transfections were performed in triplicate and reproduced in multiple experiments. Data are reported as fold induction or reduction over vehicle ([…]) controls ± SEM (standard error of the mean) using standard propagation of error ([Bevington and Robinson 2003]). […] The EC50, EC10, IC50, and IC10 values from NCGC and ToxCast™ are reported from gain AC50 and AC10 values in the ToxCast™ 2014 release ([Filer et al. 2014]).
Figure 4 ToxPi Chemical Activity on PPARγ and RXRα. The ability of a graded dose series of ToxPi chemicals to activate (A) GAL4-mPPARγ or (B) GAL4-hRXRα was tested in transiently transfected COS7 cells. (A, B) Data points are averages of triplicate transfections (three biological replicates). […] ToxPi chemicals were tested in 3-fold serial dilutions from 100 μM through 0.137 μM, with the final data point being 0.05% DMSO. Data are depicted as fold induction over vehicle (0.05% DMSO) controls ± SEM. (A) Rosiglitazone serves as a positive control activator for GAL4-mPPARγ. (B) LG100268 (2-[1-(3,5,5,8,8-Pentamethyl-5,6,7,8-tetrahydro-2-naphthyl)cyclopropyl]pyridine-5-carboxylic acid) serves as a positive control activator for GAL4-hRXRα. (C) EC50 and EC10 values calculated from A and B are reported and compared to other assays (see Figure S1). ATG, Attagene GAL-PPARγ or GAL-RXRα activation assay; NCGC, GeneBLAzer® GAL-PPARγ or GAL-RXRα activation assays. Triphenyltin was previously published ([Kanayama et al. 2005]).

[8] = test system: RXRα; details: ref Filer et al. 2014, cited from earlier work
[9] = test system: LXRβ; set-up: method as in Knudsen et al. 2011; details: ToxCast Phase I 2011 release; NA = not active; ref Knudsen et al. 2011; read-out: NCGC LXR AC50; cited from earlier work
[10] = target: T2, GAL4-mPPARγ (Mus musculus, UniProt P37238); test: GAL4-mPPARγ activation, transient transfection luciferase reporter in COS7 cells; assay type: cell-based; details: for Activation COS7 (result in words), ToxPi chemicals: PPARγ or RXRα activation assays (Table 2)
T2 construct: expressed in transfected cells; host or cells: COS7

[11] = test system: LXRβ; set-up: method as in Knudsen et al. 2011; details: ToxCast Phase I 2011 release; NA = not active; ref Knudsen et al. 2011; read-out: ATGT LXRβ AC50; cited from earlier work
[12] = test system: LXRα; set-up: method as in Knudsen et al. 2011; details: ToxCast Phase I 2011 release; NA = not active; ref Knudsen et al. 2011; read-out: ATGT LXRα AC50; cited from earlier work
[13] = test system: SREBP; set-up: method as in Knudsen et al. 2011; details: ToxCast Phase I 2011 release; NA = not active; ref Knudsen et al. 2011; read-out: ATGC SREBP AC50; cited from earlier work
[14] = test system: DR4/LXRE; set-up: method as in Knudsen et al. 2011; details: ToxCast Phase I 2011 release; NA = not active; ref Knudsen et al. 2011; read-out: ATGC LXRE AC50; cited from earlier work
[15] = test system: PPARγ; set-up: method as in Filer et al. 2014; details: PPARγ; NA = not active; ref Filer et al. 2014; read-out: NCGC Antag. AC50, 2014 Release; cited from earlier work
[16] = test system: COS7 cells; test: Cytotoxicity in transfected COS7 cells measured as decreased β-galactosidase activity; details: African green monkey, 24 h
Description: as §1
Figure 1 ToxCast™ Chemical Activity on PPARγ. The ability of a graded dose series of ToxCast™ chemicals to (A) activate or (B) antagonize GAL4-mPPARγ was tested in transiently transfected COS7 cells. (A, B) Data points are averages of triplicate transfections (three biological replicates). […] Data are depicted as (A) fold induction or (B) reduction over vehicle (0.05% DMSO) controls ± SEM. (A) ToxCast™ chemicals were tested in 3-fold serial dilutions from 100 μM through 0.137 μM, with the final data point being 0.05% DMSO. Rosiglitazone serves as a positive control activator. (B) ToxCast™ chemicals were tested in 3-fold serial dilutions from 100 μM, in competition with 50 nM rosiglitazone (Rosi). […] (C) EC50, EC10, IC50, and IC10 values calculated from A and B are reported and compared to commercial assays (see Figure S1). Note: ATG, Attagene GAL-PPARγ activation assay; NCGC, GeneBLAzer® agonist (EC values) or antagonist (IC values) assays. Triphenyltin was previously published ([Kanayama et al. 2005]).

[17] = test system: PPARγ; details: ref Filer et al. 2014, cited from earlier work
[18] = test system: Human PPARγ; details: cited from earlier work
[19] = test system: 3T3-L1 preadipocytes; set-up: method as in earlier work; details: not tested here; ref Kanayama et al. 2005; Li et al. 2012; Chamorro-García et al. 2012; Masuno et al. 2002; cited from earlier work
[20] = ToxCast Phase I 2011 release, NA = not active, ref Knudsen et al. 2011, read-out: ATGT PPARγ AC50

T2 sequence (P37238 with tags, fused parts or gaps limits assumed): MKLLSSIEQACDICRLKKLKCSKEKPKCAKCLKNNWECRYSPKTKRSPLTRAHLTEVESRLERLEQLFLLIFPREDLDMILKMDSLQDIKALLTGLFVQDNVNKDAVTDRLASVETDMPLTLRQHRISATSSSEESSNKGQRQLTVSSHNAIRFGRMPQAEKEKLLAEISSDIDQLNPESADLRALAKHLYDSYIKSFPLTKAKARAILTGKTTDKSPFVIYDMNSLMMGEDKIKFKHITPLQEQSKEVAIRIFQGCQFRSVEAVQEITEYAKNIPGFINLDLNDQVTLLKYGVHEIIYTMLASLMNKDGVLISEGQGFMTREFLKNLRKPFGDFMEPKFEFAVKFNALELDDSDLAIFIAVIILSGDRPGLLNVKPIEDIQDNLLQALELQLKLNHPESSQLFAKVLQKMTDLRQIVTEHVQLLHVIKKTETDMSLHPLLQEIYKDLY
T1 sequence (P19793 with tags, fused parts or gaps limits assumed): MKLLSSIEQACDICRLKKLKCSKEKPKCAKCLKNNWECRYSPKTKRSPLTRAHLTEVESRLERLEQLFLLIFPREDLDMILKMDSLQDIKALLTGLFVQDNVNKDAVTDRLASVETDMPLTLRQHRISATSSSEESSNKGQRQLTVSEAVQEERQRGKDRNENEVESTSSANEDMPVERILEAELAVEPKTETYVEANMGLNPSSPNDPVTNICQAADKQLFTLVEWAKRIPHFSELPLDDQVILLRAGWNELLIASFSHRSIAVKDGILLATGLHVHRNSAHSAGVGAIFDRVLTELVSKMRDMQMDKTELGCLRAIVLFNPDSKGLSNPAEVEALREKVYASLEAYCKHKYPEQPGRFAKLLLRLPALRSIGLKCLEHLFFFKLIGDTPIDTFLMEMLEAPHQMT

N#Cc1c[nH]cc1-c1cccc2c1OC(F)(F)O2 [Fludioxonil]
Adipogenesis 3T3-L1 (result in words) [1]: Positive
RXRα agonist: EC10, NCGC ([2]; AC10, ToxCast 2014 release, ref Filer et al. 2014): 1.20 µM
AC50 ([2]; ToxCast Phase I 2011 release, NA = not active, ref Knudsen et al. 2011, read-out: NCGC RXRα AC50): 2.7 µM
EC50 ([2]; gain AC50, ToxCast 2014 release, ref Filer et al. 2014, read-out: RXRα agonist: EC50, NCGC): 2.24 µM
AC50 [3, 20]: 28 µM
AC50 [4]: 24 µM
AC50 [5]: 21 µM
Adipogenic differentiation of mBMSCs (result in words) [6]: could differentiate these uncommitted stem cells into adipocytes
Activation of RXRα ([7]; COS7, 100 μM through 0.137 μM): activated RXRα
EC50 ([7]; COS7, ligands 24 hr, read-out: RXRα agonist: EC50, Fig 4B): 14.3 µM
RXRα agonist: EC10, Fig 4B ([7]; COS7, computed from EC50): 5.42 µM
AC50 ([7]; Cos-7 transient transfection): 14.3 µM
Activation COS7 (result in words): RXRα activator ([7]; Cos-7 transient transfection): RXRα activator
RXRα agonist: EC10, ATG ([8]; AC10, ToxCast 2014 release): 17.93 µM
EC50 ([8]; gain AC50, ToxCast 2014 release, read-out: RXRα agonist: EC50, ATG): 23.6 µM

CCOP(=S)(Oc1cnc(C(C)(C)C)nc1)OC(C)C (centres unmarked) [Tebupirimfos]
Adipogenesis 3T3-L1 (result in words) [1]: Positive
AC50 [9]: 7.1 µM
AC50 [3, 20]: 43 µM
Activation COS7 (result in words), ToxPi chemicals ([10]; Cos-7 transient transfection): Inactive
AC50 [11]: 22 µM
AC50 [12]: 30 µM
AC50 [13]: 31 µM
AC50 [14]: 9.4 µM

CCCOC/C(=N\c1ccc(Cl)cc1C(F)(F)F)n1ccnc1 [Triflumizole]
AC50 [15]: 0.3 µM
Concentration at which cytotoxicity (decreased β-galactosidase activity) was observed [16]: 100 µM
AC50 ([3]; PPARγ, NA = not active, ref Filer et al. 2014, read-out: ATG Agonist AC50, 2014 Release): 2.2 µM
AC50 ([3]; PPARγ, NA = not active, ref Knudsen et al. 2011, read-out: ATG Agonist AC50, 2011 Release): 2.8 µM
AC50 ([3]; ToxCast 2014 release, ref Filer et al. 2014, read-out: Attagene AC50 (panel A, w/o Z-Score Correction ranking)): 20.4 µM
AC50 ([17]; PPARγ, NA = not active, read-out: NCGC Agonist AC50, 2014 Release): 67.5 µM
AC50 ([17]; ToxCast 2014 release, read-out: Tox21/NCGC AC50 (panel A)): 79.9 µM
AC50 ([18]; PPARγ direct binding, NA = not active, ref Filer et al. 2014, read-out: NVS Agonist AC50, 2014 Release): 20.8 µM
AC50 ([18]; PPARγ direct binding, NA = not active, ref Knudsen et al. 2011, read-out: NVS Agonist AC50, 2011 Release): 35 µM
AC50 ([18]; direct binding, ToxCast 2014 release, ref Filer et al. 2014, read-out: NovaScreen AC50 (panel A)): 14.1 µM
Activation of GAL4-PPARγ (text) ([10]; COS7, 100 μM through 0.137 μM): activated GAL-PPARγ
AC50 ([10]; Cos-7 transient transfection): 11.5 µM
Activation COS7 (result in words), ToxCast PPARγ list ([10]; Cos-7 transient transfection, PPARγ activation or antagonism assays (Table 1, Table S6)): PPARγ activator
Adipogenesis 3T3-L1 (result in words), previously published [19]: Positive

COP(=S)(OC)Oc1ccc(SC)c(C)c1 [Fenthion]
Adipogenesis 3T3-L1 (result in words) [1]: Negative
AC50 [3, 20]: 36 µM
AC50 [4]: 18 µM
Activation COS7 (result in words), ToxPi chemicals ([10]; Cos-7 transient transfection): Inactive
AC50 [11]: 37 µM
AC50 [12]: 33 µM
AC50 [14]: 34 µM
